Test results published in US7714146B2, “Azulene-oxindole compounds as multiple-kinase inhibitors and useful as anticancer agents” (Industrial Technology Research Institute, priority 2006, dated 2010).

Tests used:
Assay type in all cases: biochemical
[1] = target: T1, human c-KIT (Thr544-Val976) (Homo sapiens, UniProt P10721); test: c-KIT kinase assay (HTScan kit, DELFIA); conditions: for inhibition at 0.1 µM: compound at 0.1 μM, read-out: c-KIT 0.1 μM, % of inhibition relative to control; for inhibition at 1 µM: compound at 1 μM, read-out: c-KIT 1 μM, % of inhibition relative to control; for IC50: read-out: c-KIT kinase inhibition (IC50)
T1 construct: human c-KIT (Thr544-Val976); GST (N); purchased Cell Signaling Technology; host or cells: baculovirus expression system
Experimental: (§1) Compounds 1-100 were treated for their efficacy in inhibiting activities of FLT-3, c-KIT, KDR/Flk-1, PDGFR-beta, EGFR, and PKC kinases by biochemical DELFIA (Dissociation Enhanced Lanthanide FIA) assays according to the procedure described below. The assays were conducted by, Division of Cell Engineering, Biomedical Engineering Research Laboratories, Industrial Technology Research Institute, Bldg. 53, 195, sec. 4, Chung Hsing Rd. Chutung, Hsinchu, Taiwan 310, R.O.C.
(§2) The c-KIT assay was conducted following the protocol described in Protocol for HTScan® c-KIT Kinase Assay Kit (Cell Signaling Technology®). The assay was conducted under the following conditions: c-KIT source: The GST-c-KIT fusion protein was produced using a baculovirus expression system with a construct expressing human c-KIT (Thr544-Val976) with an amino-terminal GST tag, substrate: 1.5 μM This biotinylated peptide contains the residues surrounding Tyr-996 of KDR, vehicle: 1% DMSO, pre-incubation time/temperature: 5 minutes at room temperature, incubation time/temperature: 30 minutes at room temperature, incubation buffer: 60 mM HEPES pH 7.5, 5 mM MgCl2, 5 mM MnCl2, 3 μM Na3VO4, 1.25 mM DTT, 20 μM ATP, and quantitative method: DELFIA® Assay.

[2] = target: T2, human FLT-3 (Arg571-Ser993) (Homo sapiens, UniProt P36888); test: FLT-3 kinase assay (HTScan kit, DELFIA); conditions: for inhibition at 0.1 µM: compound at 0.1 μM, read-out: FLT-3 0.1 μM, % of inhibition relative to control; for inhibition at 1 µM: compound at 1 μM, read-out: FLT-3 1 μM, % of inhibition relative to control; for IC50: read-out: FLT-3 kinase inhibition (IC50)
T2 construct: human FLT-3 (Arg571-Ser993); GST (N); purchased Cell Signaling Technology; host or cells: baculovirus expression system
T2 sequence (P36888 571-993): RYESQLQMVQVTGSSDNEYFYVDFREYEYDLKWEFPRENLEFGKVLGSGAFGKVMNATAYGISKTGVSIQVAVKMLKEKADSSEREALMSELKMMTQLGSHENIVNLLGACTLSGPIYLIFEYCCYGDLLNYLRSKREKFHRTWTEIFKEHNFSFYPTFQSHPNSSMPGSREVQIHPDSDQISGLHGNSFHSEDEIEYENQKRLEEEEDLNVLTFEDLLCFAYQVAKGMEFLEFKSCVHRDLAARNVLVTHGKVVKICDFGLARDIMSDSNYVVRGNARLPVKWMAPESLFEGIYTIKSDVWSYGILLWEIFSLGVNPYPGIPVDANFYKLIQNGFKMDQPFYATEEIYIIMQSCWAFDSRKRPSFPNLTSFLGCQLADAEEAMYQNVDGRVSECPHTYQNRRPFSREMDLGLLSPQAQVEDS
Experimental: as §1
as §2, with “FLT-3” for “c-KIT”, “GST-kinase” for “GST-c-KIT”, “FLT-3 (Arg571-Ser993) (GenBank accession No. NM_004119)” for “c-KIT (Thr544-Val976)”, “Gastrin Precursor Biotinylated Peptide (with Tyr87 as phosphorylation site),” for “This biotinylated peptide contains the residues surrounding Tyr-996 of KDR,”

[3] = target: T3, human VEGFR-2 (Val789-Val1356) (Homo sapiens, UniProt P35968); test: KDR kinase assay (HTScan VEGFR-2 kit, DELFIA); conditions: for inhibition at 0.1 µM: compound at 0.1 μM, read-out: KDR 0.1 μM, % of inhibition relative to control; for inhibition at 1 µM: compound at 1 μM, read-out: KDR 1 μM, % of inhibition relative to control
T3 construct: human VEGFR-2 (Val789-Val1356); GST (N); purchased Cell Signaling Technology; host or cells: baculovirus expression system
Experimental: as §1
as §2, with “The KDR” for “The c-KIT”, “HTScan® VEGFR-2” for “HTScan® c-KIT”, “conditions: KDR” for “conditions: c-KIT”, “The GST-Kinase” for “The GST-c-KIT”, “human VEGFR-2 (Val789-Val1356) (GenBank Accession No. NM_002253)” for “human c-KIT (Thr544-Val976)”, “μM Gastrin Precursor Biotinylated Peptide (with Tyr87 as phosphorylation site),” for “μM This biotinylated peptide contains the residues surrounding Tyr-996 of KDR,”

T1 sequence (P10721 544-976): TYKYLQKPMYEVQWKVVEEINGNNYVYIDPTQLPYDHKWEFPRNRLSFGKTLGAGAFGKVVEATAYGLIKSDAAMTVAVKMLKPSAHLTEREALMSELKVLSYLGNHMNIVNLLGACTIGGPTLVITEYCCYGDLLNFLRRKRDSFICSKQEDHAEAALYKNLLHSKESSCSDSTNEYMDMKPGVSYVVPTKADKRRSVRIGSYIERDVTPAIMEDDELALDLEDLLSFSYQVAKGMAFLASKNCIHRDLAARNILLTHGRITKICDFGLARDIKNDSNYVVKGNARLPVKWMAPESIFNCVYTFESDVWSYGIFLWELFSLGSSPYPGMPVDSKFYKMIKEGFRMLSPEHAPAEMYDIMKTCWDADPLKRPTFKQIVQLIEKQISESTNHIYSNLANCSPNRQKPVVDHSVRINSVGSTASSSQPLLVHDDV
T3 sequence (P35968 789-1356): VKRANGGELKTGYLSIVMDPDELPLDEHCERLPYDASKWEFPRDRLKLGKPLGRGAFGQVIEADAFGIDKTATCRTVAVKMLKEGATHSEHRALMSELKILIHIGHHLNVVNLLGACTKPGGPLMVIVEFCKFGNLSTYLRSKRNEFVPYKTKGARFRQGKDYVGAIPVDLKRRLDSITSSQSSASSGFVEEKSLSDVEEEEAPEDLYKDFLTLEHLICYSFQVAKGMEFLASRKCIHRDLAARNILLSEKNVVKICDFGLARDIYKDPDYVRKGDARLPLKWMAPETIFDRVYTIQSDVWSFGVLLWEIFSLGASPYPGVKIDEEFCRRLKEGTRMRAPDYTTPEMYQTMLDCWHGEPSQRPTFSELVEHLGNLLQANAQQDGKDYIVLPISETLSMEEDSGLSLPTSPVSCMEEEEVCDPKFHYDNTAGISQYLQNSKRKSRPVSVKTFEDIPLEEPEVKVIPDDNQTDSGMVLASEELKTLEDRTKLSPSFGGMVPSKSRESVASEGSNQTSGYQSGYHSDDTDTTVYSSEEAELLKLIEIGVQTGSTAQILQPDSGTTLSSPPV

| inhibition at 0.1 µM [1] [%] | inhibition at 1 µM [1] [%] | inhibition at 0.1 µM [2] [%] | inhibition at 1 µM [2] [%] | inhibition at 0.1 µM [3] [%] | inhibition at 1 µM [3] [%] | IC50 [1] [µM] | IC50 [2] [µM] | SMILES |
| --- | --- | --- | --- | --- | --- | --- | --- | --- |
| 48.1 | 48.1 | 64.9 | 89.1 | 33.3 | 73.2 |  |  | Cc1cc(C=C2C(=O)Nc3ccc(C(F)(F)F)cc32)c2ccccc(OCCCN(C)C)c1-2 [Compound 100, 3-[4-(3-Dimethylamino-propoxy)-3-methyl-azulen-1-ylmethylene]-5-trifluoromethyl-1,3-dihydro-indol-2-one] |
| 65.1 | 65.1 | 70.9 | 98.4 | 35.5 | 93.6 | 0.158 | 0.0093 | Cc1cc(/C=C2\C(=O)Nc3ccc(F)cc32)c2ccccc(OCCCN(C)C)c1-2 [Compound 95, 3-[4-(3-Dimethylamino-propoxy)-3-methyl-azulen-1-ylmethylene]-5-fluoro-1,3-dihydro-indol-2-one] |
| 47.6 | 47.6 | 6.5 | 14.4 | 35.8 | 52.4 |  |  | Cc1cc(C=C2C(=O)Nc3cc(C(F)(F)F)ccc32)c2ccccc(OCCCN(C)C)c1-2 [Compound 94, 3-[4-(3-Dimethylamino-propoxy)-3-methyl-azulen-1-ylmethylene]-6-trifluoromethyl-1,3-dihydro-indol-2-one] |
| 60.4 | 60.4 | 46.1 | 85.4 | 38.6 | 80.3 |  |  | Cc1cc(C=C2C(=O)Nc3ccccc32)c2ccccc(OCCCN(C)C)c1-2 [Compound 98, 3-[4-(3-Dimethylamino-propoxy)-3-methyl-azulen-1-ylmethylene]-1,3-dihydro-indol-2-one] |
| 58 | 58 | 68.9 | 97.2 | 29.3 | 89.8 |  |  | Cc1cc(C=C2C(=O)Nc3ccc(F)cc32)c2ccccc(OCCCN3CCN(C)CC3)c1-2 [Compound 96, 5-Fluoro-3-{3-methyl-4-[3-(4-methyl-piperazin-1-yl)-propoxy]-azulen-1-ylmethylene}-1,3-dihydro-indol-2-one] |
| 34.4 | 34.4 | 7.3 | 59.4 | 28.7 | 73.9 |  |  | Cc1cc(C=C2C(=O)Nc3c(F)cccc32)c2ccccc(OCCCN(C)C)c1-2 [Compound 99, 3-[4-(3-Dimethylamino-propoxy)-3-methyl-azulen-1-ylmethylene]-7-fluoro-1,3-dihydro-indol-2-one] |

More lines, now with the values behind:

| SMILES | inhibition at 0.1 µM [1] [%] | inhibition at 1 µM [1] [%] | inhibition at 0.1 µM [2] [%] | inhibition at 1 µM [2] [%] | inhibition at 0.1 µM [3] [%] | inhibition at 1 µM [3] [%] | IC50 [1] [µM] | IC50 [2] [µM] |
| --- | --- | --- | --- | --- | --- | --- | --- | --- |
| O=C1Nc2ccc(F)cc2/C1=C\c1ccc2cccccc1-2 [Compound 25, 3-Azulen-1-ylmethylene-5-fluoro-1,3-dihydro-indol-2-one] | 75 | 75 | 26.2 | 58.8 | 7.7 | 45.7 |  |  |
| Nc1cc2cccccc-2c1C=C1C(=O)Nc2ccc(F)cc21 [Compound 64, 3-(2-Amino-azulen-1-ylmethylene)-5-fluoro-1,3-dihydro-indol-2-one] | 34.2 | 34.2 | 68.3 | 74.9 | 46.5 | 47.8 |  |  |
| O=C1Nc2ccc(F)cc2/C1=C/c1c(Br)c2cccccc-2c1Br [Compound 61, 3-(1,3-Dibromo-azulen-2-ylmethylene)-5-fluoro-1,3-dihydro-indol-2-one] | 30.5 | 30.5 | 62.5 | 42.5 | 44.2 | 52.6 |  |  |
| CN(C)Cc1c(/C=C2/C(=O)Nc3ccc(F)cc32)cc2cccccc1-2 [Compound 59, 3-(1-Dimethylaminomethyl-azulen-2-ylmethylene)-5-fluoro-1,3-dihydro-indol-2-one] | 24.2 | 24.2 | 43 | 49.8 | 19.9 | 28.5 |  |  |
| Cc1cc(C=C2C(=O)Nc3ccc(S(=O)(=O)NCCCN4CCN(C)CC4)cc32)c2cccccc1-2 [Compound 82, 3-(3-Methyl-azulen-1-ylmethylene)-2-oxo-2,3-dihydro-1H-indole-5-sulfonic acid [3-(4-methyl-piperazin-1-yl)-propyl]-amide] | 30.7 | 30.7 | 12.8 | 13.5 | 17.6 | 18.5 |  |  |
| Cc1cc(C=C2C(=O)Nc3ccc(F)cc32)c2ccccc(OCCCN3CCOCC3)c1-2 (mixture of isomers) [Compound 87, 5-Fluoro-3-[3-methyl-4-(3-morpholin-4-yl-propoxy)-azulen-1-ylmethylene]-1,3-dihydro-indol-2-one] | 71 | 71 | 56.9 | 85.7 | 1.9 | 11.5 | 0.0178 | 0.0048 |
| CN(C)CCNC(=O)c1cc(/C=C2/C(=O)Nc3ccc(F)cc32)c2cccccc1-2 [Compound 67, 3-(5-Fluoro-2-oxo-1,2-dihydro-indol-3-ylidenemethyl)-azulene-1-carboxylic acid (2-dimethylamino-ethyl)-amide] | 30.2 | 30.2 |  | 14 |  | 7.4 |  |  |
| Cc1c2cccccc-2c(C)c1/C=C1/C(=O)Nc2ccc(F)cc21 [Compound 66, 3-(1,3-Dimethyl-azulen-2-ylmethylene)-5-fluoro-1,3-dihydro-indol-2-one] | 33.7 | 33.7 | 15.8 | 19.6 | 14.8 | 40.6 |  |  |
| Cc1ccc2c(c1)/C(=C\c1c3cccccc-3nc1N)C(=O)N2 [Compound 54, 3-(2-Amino-cyclohepta[b]pyrrol-3-ylmethylene)-5-methyl-1,3-dihydro-indol-2-one] | 27.5 | 27.5 | 33.3 | 52.5 | 17 | 25.7 |  |  |
